{"source": "patent US20120269815A1", "about": "“NEUROTROPHINS AND USES THEREOF” (Regents of the University of Minnesota, priority 2008, published 2012)", "key": {"[1]": {"tested_on": "unknown receptor expressed in COS7 cell", "assay": "Fluorescence-labeled TUF1 peptide binding to control (pCMV-GFP) COS7 cells", "conditions": "labeled peptide 5 nM, COS7 cells transfected with pCMV-GFP", "method": "COS7 cells were seeded at 10,000 cells/well onto a 18 mm coverslip in a 12-well plate. Cells were allowed to settle overnight in a cell culture incubator (NuAire NU-8600, NuAire, Inc., Plymouth, Minn.) set at 37° C. and 5% CO2. Cells were transfected with pCMV-eGFP (Clontech Laboratories, Inc., Mountain View, Calif.) or pCMV-SPORT6-p75 (ATCC) using Fugene HD (Roche Diagnostics Corp., Indianapolis, Ind.) and were incubated overnight. The binding assays were carried out according to Horton et al. with modifications. Synthetic TUF1 peptides (TUF1[43-54] (SEQ ID NO:1) and TUF1[24-40] (SEQ ID NO:3) were generated (via Sigma Genosys, Sigma-Aldrich Co. St. Louis, Mo.) and were conjugated per manufacturer's recommendation with DyLight 549 NHS Ester (Thermo Fisher Scientific, Waltham, Mass.), which have similar spectra to Cy3 dye. Unconjugated dye was removed with a dye removal column (Thermo Fisher Scientific, Waltham, Mass.). Labeled peptides were diluted to 5 nM in 0.15 M Sucrose/PBS and added (1.0 ml/well) to transfected COS7 cells. The binding reaction was incubated in the dark at room temperature for 90 minutes. Cells were rinsed thoroughly with PBS+0.05% Tween-20 to remove unbound peptide. Cells were then fixed with 4% Paraformaldehyde (5 minutes). […]"}, "p75^NTR": {"biological_target": "T1, p75^NTR (Homo sapiens, UniProt P08138)", "T1 construct": "host or cells: COS7", "T1 sequence (P08138 29-427)": "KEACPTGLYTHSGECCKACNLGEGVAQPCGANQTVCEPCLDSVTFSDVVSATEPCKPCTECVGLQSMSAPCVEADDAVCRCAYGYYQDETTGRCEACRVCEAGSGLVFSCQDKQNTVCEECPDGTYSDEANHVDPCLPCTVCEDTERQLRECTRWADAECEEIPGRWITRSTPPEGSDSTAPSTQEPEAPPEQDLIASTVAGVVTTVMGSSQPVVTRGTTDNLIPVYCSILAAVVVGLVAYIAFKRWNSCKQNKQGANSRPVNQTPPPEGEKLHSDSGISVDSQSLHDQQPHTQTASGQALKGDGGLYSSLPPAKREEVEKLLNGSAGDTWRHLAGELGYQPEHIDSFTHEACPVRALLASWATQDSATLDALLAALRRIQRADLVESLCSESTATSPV", "assay": "Fluorescence-labeled TUF1 peptide binding to COS7 cells expressing p75NTR", "conditions": "labeled peptide 5 nM, 90 min, COS7 cells transfected with pCMV-SPORT6-p75", "method": "COS7 cells were seeded at 10,000 cells/well onto a 18 mm coverslip in a 12-well plate. Cells were allowed to settle overnight in a cell culture incubator (NuAire NU-8600, NuAire, Inc., Plymouth, Minn.) set at 37° C. and 5% CO2. Cells were transfected with pCMV-eGFP (Clontech Laboratories, Inc., Mountain View, Calif.) or pCMV-SPORT6-p75 (ATCC) using Fugene HD (Roche Diagnostics Corp., Indianapolis, Ind.) and were incubated overnight. The binding assays were carried out according to Horton et al. with modifications. Synthetic TUF1 peptides (TUF1[43-54] (SEQ ID NO:1) and TUF1[24-40] (SEQ ID NO:3) were generated (via Sigma Genosys, Sigma-Aldrich Co. St. Louis, Mo.) and were conjugated per manufacturer's recommendation with DyLight 549 NHS Ester (Thermo Fisher Scientific, Waltham, Mass.), which have similar spectra to Cy3 dye. Unconjugated dye was removed with a dye removal column (Thermo Fisher Scientific, Waltham, Mass.). Labeled peptides were diluted to 5 nM in 0.15 M Sucrose/PBS and added (1.0 ml/well) to transfected COS7 cells. The binding reaction was incubated in the dark at room temperature for 90 minutes. Cells were rinsed thoroughly with PBS+0.05% Tween-20 to remove unbound peptide. Cells were then fixed with 4% Paraformaldehyde (5 minutes).\nFollowing fixation, cells were permeabilized in PBS+0.1% Tween-20 for 10 minutes, rinsed thoroughly with PBS, and blocked in BSA (10 mg/ml) for 10 minutes. Cells were incubated with rabbit anti-p75^NTR antibody (1:10,000 dilution) for 30 minutes. Excess antibody was removed with PBS washes. Cells were then incubated with Alexa-488 goat anti-rabbit antibody (1:500 dilution, Invitrogen). Cells were again rinsed thoroughly with PBS and mounted in Vectashield mounting media plus DAPI (Vector Laboratories, Inc., Burlingame, Calif.).\nCOS7 cells were seeded at 10,000 cells/well onto an 18 mm coverslip in a 12-well plate. Cells were allowed to settle overnight in a cell culture incubator (NuAire NU-8600, NuAire, Inc., Plymouth, Minn.) set at 37° C. and 5% CO2. Cells were transfected with pCMV-eGFP (Clontech Laboratories, Inc., Burlingame, Calif.) or pCMV-SPORT6-p75 (ATCC) using Fugene HD (Roche Diagnostics Corp., Indianapolis, Ind.) and were incubated overnight. The binding assays were carried out according to Horton et al. with modifications. Synthetic TUF1 peptides (TUF1[43-54] (SEQ ID NO:1) and TUF1[24-40] (SEQ ID NO:3)) were generated (via Sigma Genosys, Sigma-Aldrich, St. Louis, Mo.) and were conjugated per manufacturer's recommendation with DyLight 549 NHS Ester (Thermo Fisher Scientific Inc., Waltham, Mass.), which have similar spectra to Cy3 dye. Unconjugated dye was removed with a dye removal column (Thermo Fisher Scientific Inc., Waltham, Mass.). Labeled peptides were diluted to 5 nM in 0.15M Sucrose/PBS and added (1.0 ml/well) to transfected COS7 cells. The binding reaction was incubated in the dark at room temperature for 90 min. Cells were rinsed thoroughly with PBS+0.05% Tween-20 to remove unbound peptide. Cells were then fixed with 4% Paraformaldehyde (5 minutes).\nFollowing fixation, cells were permeabilized in PBS+0.1% Tween-20 for 10 minutes, rinsed thoroughly with PBS, and blocked in BSA (10 mg/ml) for 10 minutes. Cells were incubated with rabbit anti-p75^NTR antibody (1:10,000 dilution) for 30 minutes. Excess antibody was removed with PBS washes. Cells were then incubated with Alexa-488-goat anti-rabbit antibody (1:500 dilution, Invitrogen Corp., Carlsbad, Calif.). […]"}, "COS7 cells": {"tested_on": "COS7 cells", "assay": "COS7 cell survival following serum deprivation (Trypan blue uptake)", "type": "cell-based", "conditions": "5 nM peptide", "method": "To gain insight into the binding of TUF1[43-54] peptide and p75^NTR, serum deprivation was used as a stressor to COS7 cells transfected with pCMV-SPORT6-p75 expression vector. COS7 cells were seeded at 15,000 cells/well in 12-well plates, transfected with 300 ng pCMV-eGFP (control) or 300 ng pCMV-SPORT6-p75, and incubated overnight. Cells were then incubated in serum-free medium or serum-free medium supplemented with 5 nM TUF1[43-54]. Cells were assessed for Trypan blue dye uptake at 24, 48, and 72 hours.\nImmediately after removing growth medium, cells were rinsed with PBS and incubated in 100 μl 0.4% Trypan blue dye diluted in PBS. Images of cells were captured at 10× magnification using an inverted microscope equipped with a CCD camera. Trypan blue-positive cells were counted using Adobe Photoshop CS3 (Adobe Systems Inc., San Jose, Calif.). Graphs and statistics were performed using Prism Graphpad 4.0 (GraphPad Software Inc., San Diego, Calif.)."}}, "note": "Entries after “also recorded” stand apart in the source; their conditions may differ. No end group written: not given here.", "data": [{"sequence": "AYKSYVRALPLL [TUF1[43-54]]", "values": [{"measurement": "binding to unknown receptor expressed in COS7 cell", "setting": "[1]", "result": "binds to an unknown receptor expressed in COS7 cell at a low level"}, {"measurement": "binding to p75^NTR", "setting": "p75^NTR", "result": "binds more readily to p75 neurotrophic receptor"}, {"measurement": "binding to p75^NTR", "setting": "p75^NTR; listed as TUF1^43-54", "result": "found to bind the p75^NTR"}, {"measurement": "binding to p75^NTR", "setting": "p75^NTR; listed as TUF1 peptide", "result": "binds p75 receptor expressed in COS cells"}, {"measurement": "survival benefit of peptide in presence of p75^NTR", "setting": "COS7 cells; COS7 cells transfected with pCMV-SPORT6-p75, serum deprivation", "result": "removed the survival benefit"}, {"measurement": "cell survival / cell death following serum deprivation", "setting": "COS7 cells; Trypan blue-positive cells at 24, 48, 72 hours, control-transfected COS7 cells", "result": "promotes cell survival; also recorded: reduces in vitro cell death following serum deprivation"}]}]}
